# Source: article PMC11166458, “Caskin2 is a novel talin- and Abi1-binding protein that promotes cell motility” (Journal of Cell Science, 2024)
# How the values were obtained:
# HA–Abi1 = assay: GFP-Trap co-IP of HA–Abi1 by Caskin2-GFP constructs in COS-7 cells; assay type: binding; settings: for HA–Abi1 binding: GFP-Trap, western blot, three independent experiments
# Protocol: (§1) For transient expression, COS-7 cells were grown to 70% confluence in 10 cm culture dishes and transfected with plasmid DNAs using the DEAE–dextran method ([Schaapveld et al., 1998]). Briefly, 4.5 µg of plasmid DNA was mixed with 500 µg/ml DEAE–dextran in 2.5 ml PBS. Cells were washed two times with PBS and then incubated for 30 min at 37°C with the DEAE–dextran solution. Subsequently, 80 µM chloroquine was added to the cells in 10 ml DMEM with FCS and cells were incubated at 37°C for 3 h. After aspiration of the medium, the cells were treated with 3 ml of DMEM with FCS containing 10% DMSO for 2.5 min. The DMSO solution was then removed and replaced with fresh medium, after which the cells were further incubated for 48–72 h before analysis.
# (§2) For analysis of protein in whole-cell lysates, cells were washed three times with cold PBS, lysed in Nonidet P-40 lysis buffer [20 mM Tris-HCl pH 7.5, 100 mM NaCl, 1% NP-40), supplemented with Na3VO4 (1.5 mM), NaF (15 mM), protease inhibitor cocktail (1:1000; Sigma-Aldrich) and phosphatase inhibitor cocktail 3 (1:100; Sigma-Aldrich)] and cleared by centrifugation at 14,000 g for 1 h at 4°C. After addition of an equal volume of 4× sample buffer (200 mM Tris-HCl pH 6.8, 10% SDS, 40% glycerol 0,1% Bromophenol Blue and 2% mercaptoethanol) and heating the samples at 95°C for 5 min, the samples were loaded on Novex NuPAGE 4–12% gradient Bis-Tris gels (Invitrogen) and transferred onto Immobilon® PVDF membranes. Membranes were blocked for at least 2 h in 2% BSA in TBST (10 mM Tris-HCl pH 7.5, 150 mM NaCl with 0.05% Tween 20] before incubation with primary antibody overnight at 4°C and with secondary antibody for 1 h at room temperature. After each incubation step, the membranes were washed twice with TBST and twice with TBS (TBST without Tween 20). Finally, proteins were visualized using Clarity™ Western ECL Substrate (Bio-Rad Laboratories), as described previously ([Wang et al., 2020b]).
# (§3) GFP-Trap pulldown experiments were performed as follows. Cleared lysates containing equal amounts of proteins, as determined by a Pierce™ BCA Protein Assay, were incubated with GFP-Trap agarose beads (Chromotek) in a rotation wheel for 6 h at 4°C. Beads were washed three times with Nonidet P-40 lysis buffer and two times with cold PBS. Bound proteins and input samples (whole-cell lysates, 1%) were then loaded on gel and transferred to Immobilon-P transfer membranes, after which the blotted proteins were probed with antibodies, as described above.
# pCaskin2 (S878) = assay: Caskin2 S878 phosphorylation (GFP-Trap, western blot) in GE11tetONβ1 cells; assay type: cell-based; settings: for Caskin2 phosphorylation on S878 after growth factor: EGF 100 ng/ml or PDGF 50 ng/ml, serum-starved 16 h; for EGF-induced phosphorylation of Caskin2 at serine 878 with inhibitor: inhibitor 100 nM, 1 h pretreatment, EGF 100 ng/ml for 15 min
# From the text: To explore the role of Caskin2-S878 further in regulating the Abi1 interaction, we developed a phospho-specific antibody targeting this serine. Unfortunately, high non-specific binding of the phospho-Caskin2 antibody protein sample prevented its consistent use in detecting phosphorylated Caskin2 in western blot analysis of whole-cell lysates. […] Abi1 functions downstream of growth factor receptor signaling to control Rac1-dependent actin rearrangements. Therefore, we hypothesized that Caskin2-S878 phosphorylation might occur downstream of growth factor receptor stimulation. To explore this, we conducted co-IP experiments using GE11^tetONβ1 cells stably expressing Caskin2-FL–GFP stimulated with either EGF or PDGF. […] To gain insight into the kinases involved in the EGF-induced phosphorylation of Caskin2 at serine 878, we pretreated the cells with mTOR (AZD8055) and MEK1/2 (Trametinib) inhibitors for 1 h before stimulation.
# as §2, §3
# For EGF- and PDGF-BB-induced stimulation of Caskin2 phosphorylation, cells were serum starved for 16 h in DMEM without FCS. […]
# Caskin2–Abi1 = Caskin2–Abi1 binding after growth factor stimulation (GFP-Trap, western blot) in GE11tetONβ1 cells; assay type: cell-based; settings: for Caskin2–Abi1 binding after growth factor: EGF 100 ng/ml or PDGF 50 ng/ml, serum-starved 16 h; for EGF-stimulated loss of Abi1 binding with inhibitor: inhibitor 100 nM, 1 h pretreatment, EGF 100 ng/ml for 15 min
# Protocol: For analysis of protein in whole-cell lysates, cells were washed three times with cold PBS, lysed in Nonidet P-40 lysis buffer [20 mM Tris-HCl pH 7.5, 100 mM NaCl, 1% NP-40), supplemented with Na3VO4 (1.5 mM), NaF (15 mM), protease inhibitor cocktail (1:1000; Sigma-Aldrich) and phosphatase inhibitor cocktail 3 (1:100; Sigma-Aldrich)] and cleared by centrifugation at 14,000 g for 1 h at 4°C.
# as §3
# For EGF- and PDGF-BB-induced stimulation of Caskin2 phosphorylation, cells were serum starved for 16 h in DMEM without FCS. The serum-starved cells were then treated with 100 ng/ml EGF (Sigma-Aldrich) or 50 ng/ml PDGF-BB (Sigma-Aldrich) at 37°C for the indicated times. Serum-starved cells treated with EGF and the signal transduction inhibitors AZD8055 (mTOR inhibitor, Selleckchem) and Tramatinib (MEK1/2 inhibitor, Selleckchem) were first pre-treated with the inhibitor for 60 min before they were treated with the growth factor for 15 min.
# Caskin2 = assay: GFP-Trap co-IP of Caskin2 by GFP-tagged talin constructs in COS-7 cells; assay type: binding, Human; settings: western blot
# Protocol: as §1
# For analysis of protein in whole-cell lysates, cells were washed three times with cold PBS, lysed in Nonidet P-40 lysis buffer [20 mM Tris-HCl pH 7.5, 100 mM NaCl, 1% NP-40), supplemented with Na3VO4 (1.5 mM), NaF (15 mM), protease inhibitor cocktail (1:1000; Sigma-Aldrich) and phosphatase inhibitor cocktail 3 (1:100; Sigma-Aldrich)] and cleared by centrifugation at 14,000 g for 1 h at 4°C. […]
# (§4) GFP-Trap pulldown experiments were performed as follows. Cleared lysates containing equal amounts of proteins, as determined by a Pierce™ BCA Protein Assay, were incubated with GFP-Trap agarose beads (Chromotek) in a rotation wheel for 6 h at 4°C. […]
# endogenous talin = assay: GFP-Trap pulldown of talin by Caskin2-GFP constructs in COS-7 cells; assay type: binding; settings: western blot, n=3
# Protocol: as §1
# (§5) For analysis of protein in whole-cell lysates, cells were washed three times with cold PBS, lysed in Nonidet P-40 lysis buffer [20 mM Tris-HCl pH 7.5, 100 mM NaCl, 1% NP-40), supplemented with Na3VO4 (1.5 mM), NaF (15 mM), protease inhibitor cocktail (1:1000; Sigma-Aldrich) and phosphatase inhibitor cocktail 3 (1:100; Sigma-Aldrich)] and cleared by centrifugation at 14,000 g for 1 h at 4°C. After addition of an equal volume of 4× sample buffer (200 mM Tris-HCl pH 6.8, 10% SDS, 40% glycerol 0,1% Bromophenol Blue and 2% mercaptoethanol) and heating the samples at 95°C for 5 min, the samples were loaded on Novex NuPAGE 4–12% gradient Bis-Tris gels (Invitrogen) and transferred onto Immobilon® PVDF membranes. […]
# as §4
# talin = assay: GFP-Trap pulldown of talin by Caskin2-GFP constructs in GE11tetON β1 cells; assay type: binding; settings: western blot, with and without doxycycline
# Protocol: as §5, §4
# 14-3-3 proteins = assay: GFP-Trap co-IP of 14-3-3 proteins in GE11tetONβ1 cells; assay type: binding
# Protocol: as §5, §4
# Abi1 = assay: Immunofluorescence colocalization of Caskin2-GFP constructs with Abi1 in GE11tetONβ1 cells; assay type: cell-based; settings: cell periphery
# Protocol: PA-JEB/β4 keratinocytes were seeded on glass coverslips and cultured for 24 h in complete KGM, and then continued to be cultured for a further 16 h in DMEM with 10% FCS. GE11^tetONβ1 and MCF7 cells were seeded on glass coverslips and cultured for 24 h in DMEM with 10% FCS. Cells were fixed in 2% paraformaldehyde and permeabilized with 0.2% Triton X-100 for 5 min, blocked with PBS containing 2% bovine serum albumin (BSA; Sigma-Aldrich) for 45 min and subsequently incubated with primary and secondary antibodies for 1 h. In between antibody steps, the coverslips were washed three times with PBS. Actin fibers were visualized by staining with Phalloidin–Alexa Fluor 647 (Cell Signaling Technology). Nuclei were stained with DAPI. Samples were mounted on glass slides in Mowiol after three washing steps with PBS. Images were acquired with a Leica TCS SP5 confocal microscope with a 63× (NA 1.4) oil objective. Software for image acquisition is Leica LAS AF 3.0.2 ([Wang et al., 2020b]).
# Imaging analysis was performed using FIJI software ([Schindelin et al., 2012]). The levels of colocalization between Caskin2 and various other proteins, including integrin β4, FA proteins and CMSC components, was performed using Pearson's co-efficient analysis in the JACoP module of ImageJ ([Carisey et al., 2013]; [Wang et al., 2020b]).
# [1] = tested on: endogenous Abi1, Wasf1, Cyfip2 and Nckap1; assay: GFP-Trap co-IP of endogenous WRC components in GE11tetONβ1 cells; assay type: binding
# Protocol: as §5, §4
# GE11tetONβ1 cells = assay: Cell migration (time-lapse cell motility) of GE11tetONβ1 cells; assay type: cell-based; settings: 20 h time-lapse, DMEM 1% FCS; two independent experiments
# Protocol: Cell motility assays were conducted using time-lapse recordings of cells cultured on plastic 12-well plates in DMEM containing 1% FCS and 1% antibiotics. Phase-contrast images were acquired using a Zeiss AxioObserver Z.1 microscope equipped with a heated stage (37°C and 5% CO2), with a 10×/0.30 EC Plan-Neofluar Ph1 objective (Zeiss), captured with a Zeiss AxioCam MRm. Images were acquired every 10 min for 20 h. Cells were tracked manually using ImageJ; tracking data was analyzed using the Chemotaxis Tool plugin (Ibidi).
compound,measurement,setting,value
"Caskin2-S877D–GFP: phosphomimetic mutant of Caskin2–GFP, S877 to aspartic acid",HA–Abi1 binding,HA–Abi1,no obvious difference in binding
EGF: growth factor (Sigma-Aldrich),Caskin2 phosphorylation on S878 after growth factor,pCaskin2 (S878),increase in Caskin2 phosphorylation on S878 within 5 min
same,Caskin2–Abi1 binding after growth factor,Caskin2–Abi1,reduction in Caskin2–Abi1 binding
Talin-R2E–GFP: talin mutant carrying two reverse charge mutations (R1523E and K1530E),Caskin2 binding to talin construct,Caskin2,slightly increased binding
PDGF,Caskin2 phosphorylation on S878 after growth factor,pCaskin2 (S878),increase in Caskin2 phosphorylation on S878 within 5 min
same,Caskin2–Abi1 binding after growth factor,Caskin2–Abi1,reduction in Caskin2–Abi1 binding
"CC(=O)Nc1cccc(-n2c(=O)n(C3CC3)c(=O)c3c(Nc4ccc(I)cc4F)n(C)c(=O)c(C)c32)c1 [Trametinib, reference compound]",EGF-induced phosphorylation of Caskin2 at serine 878 with inhibitor,pCaskin2 (S878),reduced phosphorylation of Caskin2
same,EGF-stimulated loss of Abi1 binding with inhibitor,Caskin2–Abi1,inhibited the EGF-stimulated loss of Abi1 binding
"Caskin2-4A–GFP: GFP-fused Caskin2 mutant with four amino acids (L1183, F1190, L1197, L1201) replaced by alanine",talin binding,endogenous talin,failed to pull down endogenous talin
Caskin2-FL–GFP: full-length Caskin2 fused to GFP,talin binding,talin,the interaction is independent of integrin β1
same,precipitation of 14-3-3 proteins,14-3-3 proteins,precipitated with both Caskin2-FL–GFP and Caskin2-PRR^4A–GFP
same,colocalization with Abi1,Abi1,colocalized with Abi1 at the cell periphery
same,"precipitation of endogenous Abi1, Wasf1, Cyfip2 and Nckap1",[1],"precipitated endogenous Abi1, Wasf1, Cyfip2 and Nckap1"
same,HA–Abi1 binding,HA–Abi1,efficiently pulled down
same,increase in cell motility compared to GFP-only expression,GE11tetONβ1 cells,~45%
"COc1ccc(-c2ccc3c(N4CCOC[C@@H]4C)nc(N4CCOC[C@@H]4C)nc3n2)cc1CO [AZD8055, reference compound]",EGF-induced phosphorylation of Caskin2 at serine 878 with inhibitor,pCaskin2 (S878),reduced phosphorylation of Caskin2
same,EGF-stimulated loss of Abi1 binding with inhibitor,Caskin2–Abi1,"only Trametinib, either alone or in combination with AZD8055 inhibited the EGF-stimulated loss of Abi1 binding"
"Caskin2-S878D–GFP: phosphomimetic mutant of Caskin2–GFP, S878 to aspartic acid",reduction of HA–Abi1 binding,"HA–Abi1; co-IP, phosphomimetic mutant",~80%
"full-length exogenous talin: full-length exogenous talin, GFP-tagged",Caskin2 binding to talin construct,Caskin2,only limited binding
Caskin2-ΔLD–GFP: Caskin2 construct with the LD motif deleted (L1183–D1202 deleted) fused to GFP,talin binding,talin,the LD motif is required for the interaction with talin
same,cell motility,GE11tetONβ1 cells,no difference in motility between Caskin2-FL–GFP- and Caskin2-ΔLD–GFP- expressing cells
Caskin2-PRR^4A–GFP: Caskin2–GFP with PxPxxPxR mutated to AxAxxAxA,precipitation of 14-3-3 proteins,14-3-3 proteins,precipitated with both Caskin2-FL–GFP and Caskin2-PRR^4A–GFP
same,colocalization with Abi1,Abi1,no such colocalization was observed
same,talin binding,endogenous talin,talin binding was unaffected
same,"precipitation of endogenous Abi1, Wasf1, Cyfip2 and Nckap1",[1],none of these were precipitated
same,HA–Abi1 binding,HA–Abi1,neither of these constructs could precipitate co-expressed HA-tagged Abi1
same,cell motility,GE11tetONβ1 cells,migrated at a similar speed as GFP-only-expressing cells
Caskin2-ΔPRR–GFP: Caskin2–GFP lacking amino acids 746–1035,colocalization with Abi1,Abi1,no such colocalization was observed
same,talin binding,endogenous talin,talin binding was unaffected
same,HA–Abi1 binding,HA–Abi1,neither of these constructs could precipitate co-expressed HA-tagged Abi1
same,cell motility,GE11tetONβ1 cells,migrated at a similar speed as GFP-only-expressing cells
